Source: ChEMBL document CHEMBL4330132, “5-Keto-3-cyano-2,4-diaminothiophenes as selective maternal embryonic leucine zipper kinase inhibitors” (Bioorg Med Chem Lett, 2019)

What was measured:
[1] = target: Calcium/calmodulin-dependent protein kinase kinase 1 (Homo sapiens) (UniProt Q8N5S9); experiment: Binding affinity to wild-type human partial length CAMKK1 (R65 to E414 residues) expressed in bacterial expression system assessed as residual binding level at 1 uM by Kinomescan method relative to control
[2] = target: Casein kinase I isoform gamma-1 (Homo sapiens) (UniProt Q9HCP0); experiment: Binding affinity to wild-type human partial length CSNK1G1 (T15 to S353 residues) expressed in bacterial expression system assessed as residual binding level at 1 uM by Kinomescan method relative to control
[3] = tested on: Epidermal growth factor receptor (Homo sapiens), P00533 [UNDEFINED MUTATION]; experiment: Binding affinity to human partial length EGFR L747-T751del/Sins mutant expressed in bacterial expression system assessed as residual binding level at 1 uM by Kinomescan method relative to control
[4] = target: Receptor tyrosine-protein kinase erbB-2 (Homo sapiens) (UniProt P04626); experiment: Binding affinity to wild-type human partial length ERBB2 (K646 to V1225 residues) expressed in mammalian expression system assessed as residual binding level at 1 uM by Kinomescan method relative to control
[5] = target: Mitogen-activated protein kinase 7 (Homo sapiens) (UniProt Q13164); experiment: Binding affinity to wild-type human partial length ERK5 (M1 to A409 residues) expressed in bacterial expression system assessed as residual binding level at 1 uM by Kinomescan method relative to control
[6] = target: Vascular endothelial growth factor receptor 3 (Homo sapiens) (UniProt P35916); experiment: Binding affinity to wild-type human partial length FLT4 (E821 to E1196 residues) expressed in bacterial expression system assessed as residual binding level at 1 uM by Kinomescan method relative to control
[7] = target: LIM domain kinase 2 (Homo sapiens) (UniProt P53671); experiment: Binding affinity to wild-type human full length LIMK2 (M1 to P638 residues) expressed in bacterial expression system assessed as residual binding level at 1 uM by Kinomescan method relative to control
[8] = target: Serine/threonine-protein kinase 26 (Homo sapiens) (UniProt Q9P289); experiment: Binding affinity to wild-type human full length MST4 (M1 to P416 residues) expressed in mammalian expression system assessed as residual binding level at 1 uM by Kinomescan method relative to control
[9] = target: Serine/threonine-protein kinase Nek2 (Homo sapiens) (UniProt P51955); experiment: Binding affinity to wild-type human partial length NEK2 (M1 to K309 residues) expressed in bacterial expression system assessed as residual binding level at 1 uM by Kinomescan method relative to control
[10] = target: Serine/threonine-protein kinase NLK (Homo sapiens) (UniProt Q9UBE8); experiment: Binding affinity to wild-type human full length NLK (M13 to E527 residues) expressed in bacterial expression system assessed as residual binding level at 1 uM by Kinomescan method relative to control
[11] = target: Calcium-dependent protein kinase 1 (Plasmodium falciparum) (UniProt P62344); experiment: Binding affinity to wild-type Plasmodium falciparum full length CDPK1 (M1 to S524 residues) expressed in mammalian expression system assessed as residual binding level at 1 uM by Kinomescan method relative to control
[12] = target: Phosphatidylinositol 4-phosphate 3-kinase C2 domain-containing subunit beta (Homo sapiens) (UniProt O00750); experiment: Binding affinity to wild-type human partial length PIK3C2B (M1 to L1634 residues) expressed in mammalian expression system assessed as residual binding level at 1 uM by Kinomescan method relative to control
[13] = target: Phosphatidylinositol 4,5-bisphosphate 3-kinase catalytic subunit alpha isoform (Homo sapiens) (UniProt P42336); experiment: Binding affinity to wild-type human partial length PIK3CA (R108 to N1068 residues) expressed in mammalian expression system assessed as residual binding level at 1 uM by Kinomescan method relative to control
[14] = target: Serine/threonine-protein kinase PLK1 (Homo sapiens) (UniProt P53350); experiment: Binding affinity to wild-type human partial length PLK1 (A33 to F325 residues) expressed in mammalian expression system assessed as residual binding level at 1 uM by Kinomescan method relative to control
[15] = target: Serine/threonine-protein kinase PLK3 (Homo sapiens) (UniProt Q9H4B4); experiment: Binding affinity to wild-type human partial length PLK3 (A42 to L334 residues) expressed in mammalian expression system assessed as residual binding level at 1 uM by Kinomescan method relative to control
[16] = target: Protein kinase C delta type (Homo sapiens) (UniProt Q05655); experiment: Binding affinity to wild-type human partial length PRKCD (Q328 to D676 residues) expressed in bacterial expression system assessed as residual binding level at 1 uM by Kinomescan method relative to control
[17] = target: Serine/threonine-protein kinase D3 (Homo sapiens) (UniProt O94806); experiment: Binding affinity to wild-type human partial length PRKD3 (S543 to E863 residues) expressed in bacterial expression system assessed as residual binding level at 1 uM by Kinomescan method relative to control
[18] = target: cGMP-dependent protein kinase 1 (Homo sapiens) (UniProt Q13976); experiment: Binding affinity to wild-type human partial length PRKG1 (L339 to F686 residues) expressed in bacterial expression system assessed as residual binding level at 1 uM by Kinomescan method relative to control
[19] = target: Receptor-interacting serine/threonine-protein kinase 4 (Homo sapiens) (UniProt P57078); experiment: Binding affinity to wild-type human partial length RIPK4 (M1 to V303 residues) expressed in mammalian expression system assessed as residual binding level at 1 uM by Kinomescan method relative to control
[20] = target: Ribosomal protein S6 kinase alpha-1 (Homo sapiens) (UniProt Q15418); experiment: Binding affinity to wild-type human partial length C-terminal RSK1 kinase domain 2 (P360 to L681 residues) expressed in bacterial expression system assessed as residual binding level at 1 uM by Kinomescan method relative to control
[21] = target: Tyrosine-protein kinase SYK (Homo sapiens) (UniProt P43405); experiment: Binding affinity to wild-type human partial length SYK (D354 to N635 residues) expressed in bacterial expression system assessed as residual binding level at 1 uM by Kinomescan method relative to control
[22] = target: Serine/threonine-protein kinase TNNI3K (Homo sapiens) (UniProt Q59H18); experiment: Binding affinity to wild-type human full length TNNI3K (M1 to S835 residues) expressed in bacterial expression system assessed as residual binding level at 1 uM by Kinomescan method relative to control
[23] = target: NT-3 growth factor receptor (Homo sapiens) (UniProt Q16288); experiment: Binding affinity to wild-type human partial length TRKC (Q531 to G825 residues) expressed in mammalian expression system assessed as residual binding level at 1 uM by Kinomescan method relative to control
[24] = target: Tyrosine-protein kinase TXK (Homo sapiens) (UniProt P42681); experiment: Binding affinity to wild-type human partial length TXK (L238 to W527 residues) expressed in bacterial expression system assessed as residual binding level at 1 uM by Kinomescan method relative to control

Chain of Casein kinase I isoform gamma-1 (Homo sapiens) (Q9HCP0 whole entry, looked up, the tested form may be a part, canonical isoform): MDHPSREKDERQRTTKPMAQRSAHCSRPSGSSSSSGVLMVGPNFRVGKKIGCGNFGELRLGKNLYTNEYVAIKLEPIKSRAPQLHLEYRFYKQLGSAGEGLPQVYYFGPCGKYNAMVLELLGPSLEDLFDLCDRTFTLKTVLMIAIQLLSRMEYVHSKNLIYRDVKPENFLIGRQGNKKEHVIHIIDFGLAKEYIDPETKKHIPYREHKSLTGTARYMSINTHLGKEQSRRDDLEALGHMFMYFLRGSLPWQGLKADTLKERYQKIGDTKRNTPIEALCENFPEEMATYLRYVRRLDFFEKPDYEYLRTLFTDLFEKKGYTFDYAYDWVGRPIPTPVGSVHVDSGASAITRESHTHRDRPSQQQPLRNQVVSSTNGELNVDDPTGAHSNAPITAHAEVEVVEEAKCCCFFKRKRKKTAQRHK
Chain of Serine/threonine-protein kinase TNNI3K (Homo sapiens) (Q59H18 whole entry, the tested form may be a part): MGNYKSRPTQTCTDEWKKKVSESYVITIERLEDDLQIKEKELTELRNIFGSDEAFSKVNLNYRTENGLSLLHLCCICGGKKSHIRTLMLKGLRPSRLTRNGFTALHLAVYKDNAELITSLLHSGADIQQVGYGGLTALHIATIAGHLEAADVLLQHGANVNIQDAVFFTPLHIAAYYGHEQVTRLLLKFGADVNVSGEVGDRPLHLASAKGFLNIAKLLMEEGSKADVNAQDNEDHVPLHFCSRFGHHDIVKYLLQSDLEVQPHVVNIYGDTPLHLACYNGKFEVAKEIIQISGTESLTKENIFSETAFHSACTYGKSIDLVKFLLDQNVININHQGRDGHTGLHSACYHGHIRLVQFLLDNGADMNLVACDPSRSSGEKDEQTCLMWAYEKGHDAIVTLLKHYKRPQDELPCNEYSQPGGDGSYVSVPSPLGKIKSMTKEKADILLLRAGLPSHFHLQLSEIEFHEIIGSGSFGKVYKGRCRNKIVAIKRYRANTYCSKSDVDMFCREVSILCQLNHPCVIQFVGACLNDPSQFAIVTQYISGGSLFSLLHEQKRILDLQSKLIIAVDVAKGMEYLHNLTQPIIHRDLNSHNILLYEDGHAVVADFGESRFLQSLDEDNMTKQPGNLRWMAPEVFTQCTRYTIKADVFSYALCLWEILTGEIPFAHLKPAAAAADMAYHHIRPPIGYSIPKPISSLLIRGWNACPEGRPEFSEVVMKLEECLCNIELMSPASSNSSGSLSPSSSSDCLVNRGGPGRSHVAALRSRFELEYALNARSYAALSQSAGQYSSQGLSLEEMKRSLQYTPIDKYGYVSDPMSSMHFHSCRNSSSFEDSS
Chain of Ribosomal protein S6 kinase alpha-1 (Homo sapiens) (Q15418 whole entry, the tested form may be a part): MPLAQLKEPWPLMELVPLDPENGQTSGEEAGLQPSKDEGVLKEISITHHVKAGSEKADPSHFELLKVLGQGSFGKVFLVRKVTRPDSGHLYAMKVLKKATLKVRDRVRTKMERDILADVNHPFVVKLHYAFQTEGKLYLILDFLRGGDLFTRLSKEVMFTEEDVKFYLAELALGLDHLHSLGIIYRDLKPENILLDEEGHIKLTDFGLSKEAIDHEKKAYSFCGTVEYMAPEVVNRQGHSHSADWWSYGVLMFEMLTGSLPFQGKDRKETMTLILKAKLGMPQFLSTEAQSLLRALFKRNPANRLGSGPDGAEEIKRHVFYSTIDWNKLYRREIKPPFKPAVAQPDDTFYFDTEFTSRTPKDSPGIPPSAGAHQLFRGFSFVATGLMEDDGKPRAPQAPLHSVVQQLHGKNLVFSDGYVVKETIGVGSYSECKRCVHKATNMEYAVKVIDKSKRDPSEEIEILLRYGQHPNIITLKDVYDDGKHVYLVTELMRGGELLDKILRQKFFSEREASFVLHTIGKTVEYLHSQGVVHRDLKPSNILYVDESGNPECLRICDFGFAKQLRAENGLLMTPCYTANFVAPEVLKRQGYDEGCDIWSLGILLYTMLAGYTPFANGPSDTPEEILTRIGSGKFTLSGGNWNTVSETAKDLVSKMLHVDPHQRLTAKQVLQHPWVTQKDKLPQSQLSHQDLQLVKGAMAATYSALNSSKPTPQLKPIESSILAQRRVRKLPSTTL
Chain of Vascular endothelial growth factor receptor 3 (Homo sapiens) (P35916 whole entry, the tested form may be a part): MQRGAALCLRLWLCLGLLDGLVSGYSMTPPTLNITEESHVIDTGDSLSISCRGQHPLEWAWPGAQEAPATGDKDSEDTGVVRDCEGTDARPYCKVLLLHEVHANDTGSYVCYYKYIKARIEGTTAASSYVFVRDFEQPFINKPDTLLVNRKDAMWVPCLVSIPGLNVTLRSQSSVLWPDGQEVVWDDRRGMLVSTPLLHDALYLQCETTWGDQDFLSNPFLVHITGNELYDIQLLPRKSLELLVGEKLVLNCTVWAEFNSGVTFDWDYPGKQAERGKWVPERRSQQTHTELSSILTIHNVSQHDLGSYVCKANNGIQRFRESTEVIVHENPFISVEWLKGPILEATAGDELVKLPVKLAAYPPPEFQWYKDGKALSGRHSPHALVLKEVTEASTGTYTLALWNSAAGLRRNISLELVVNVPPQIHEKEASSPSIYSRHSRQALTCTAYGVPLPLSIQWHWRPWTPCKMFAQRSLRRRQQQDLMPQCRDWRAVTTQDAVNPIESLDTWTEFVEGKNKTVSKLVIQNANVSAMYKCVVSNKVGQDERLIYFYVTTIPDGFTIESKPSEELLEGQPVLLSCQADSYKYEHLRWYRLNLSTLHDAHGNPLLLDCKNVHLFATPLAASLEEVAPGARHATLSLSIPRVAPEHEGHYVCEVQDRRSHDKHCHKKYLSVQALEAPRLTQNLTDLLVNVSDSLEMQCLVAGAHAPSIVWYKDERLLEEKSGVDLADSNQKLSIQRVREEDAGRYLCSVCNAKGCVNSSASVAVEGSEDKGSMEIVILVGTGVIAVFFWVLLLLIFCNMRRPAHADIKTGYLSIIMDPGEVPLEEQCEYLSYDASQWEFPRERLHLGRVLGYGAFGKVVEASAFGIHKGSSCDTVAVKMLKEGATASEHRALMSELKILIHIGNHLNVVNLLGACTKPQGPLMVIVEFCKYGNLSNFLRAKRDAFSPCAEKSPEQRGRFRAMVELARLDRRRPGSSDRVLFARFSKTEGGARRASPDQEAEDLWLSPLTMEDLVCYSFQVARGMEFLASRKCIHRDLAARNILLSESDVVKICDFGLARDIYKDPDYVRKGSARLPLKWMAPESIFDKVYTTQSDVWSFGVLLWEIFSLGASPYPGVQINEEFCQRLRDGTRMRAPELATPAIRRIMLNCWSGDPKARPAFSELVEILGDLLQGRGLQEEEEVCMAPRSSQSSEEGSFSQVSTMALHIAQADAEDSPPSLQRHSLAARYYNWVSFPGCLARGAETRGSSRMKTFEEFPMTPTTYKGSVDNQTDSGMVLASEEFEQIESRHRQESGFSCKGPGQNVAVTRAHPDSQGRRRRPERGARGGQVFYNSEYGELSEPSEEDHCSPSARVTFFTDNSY
Chain of Protein kinase C delta type (Homo sapiens) (Q05655 whole entry, looked up, the tested form may be a part): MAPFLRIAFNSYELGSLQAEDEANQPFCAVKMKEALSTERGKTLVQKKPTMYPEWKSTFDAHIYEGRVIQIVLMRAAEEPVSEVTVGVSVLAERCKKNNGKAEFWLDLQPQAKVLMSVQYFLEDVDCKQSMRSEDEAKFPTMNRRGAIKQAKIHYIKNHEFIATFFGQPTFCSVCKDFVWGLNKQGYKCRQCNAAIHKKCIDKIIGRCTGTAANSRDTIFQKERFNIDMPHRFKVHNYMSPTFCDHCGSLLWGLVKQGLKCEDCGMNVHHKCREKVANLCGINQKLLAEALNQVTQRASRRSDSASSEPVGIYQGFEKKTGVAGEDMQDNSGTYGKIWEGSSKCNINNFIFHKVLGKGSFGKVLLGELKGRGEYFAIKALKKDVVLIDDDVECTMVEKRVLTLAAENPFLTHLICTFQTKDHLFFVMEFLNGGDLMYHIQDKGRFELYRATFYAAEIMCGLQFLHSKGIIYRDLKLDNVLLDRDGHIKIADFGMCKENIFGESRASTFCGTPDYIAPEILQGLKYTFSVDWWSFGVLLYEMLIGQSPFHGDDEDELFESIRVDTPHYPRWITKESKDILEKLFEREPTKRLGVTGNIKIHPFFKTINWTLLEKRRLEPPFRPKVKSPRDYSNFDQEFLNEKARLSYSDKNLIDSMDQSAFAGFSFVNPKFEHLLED
Chain of Serine/threonine-protein kinase D3 (Homo sapiens) (O94806 whole entry, the tested form may be a part): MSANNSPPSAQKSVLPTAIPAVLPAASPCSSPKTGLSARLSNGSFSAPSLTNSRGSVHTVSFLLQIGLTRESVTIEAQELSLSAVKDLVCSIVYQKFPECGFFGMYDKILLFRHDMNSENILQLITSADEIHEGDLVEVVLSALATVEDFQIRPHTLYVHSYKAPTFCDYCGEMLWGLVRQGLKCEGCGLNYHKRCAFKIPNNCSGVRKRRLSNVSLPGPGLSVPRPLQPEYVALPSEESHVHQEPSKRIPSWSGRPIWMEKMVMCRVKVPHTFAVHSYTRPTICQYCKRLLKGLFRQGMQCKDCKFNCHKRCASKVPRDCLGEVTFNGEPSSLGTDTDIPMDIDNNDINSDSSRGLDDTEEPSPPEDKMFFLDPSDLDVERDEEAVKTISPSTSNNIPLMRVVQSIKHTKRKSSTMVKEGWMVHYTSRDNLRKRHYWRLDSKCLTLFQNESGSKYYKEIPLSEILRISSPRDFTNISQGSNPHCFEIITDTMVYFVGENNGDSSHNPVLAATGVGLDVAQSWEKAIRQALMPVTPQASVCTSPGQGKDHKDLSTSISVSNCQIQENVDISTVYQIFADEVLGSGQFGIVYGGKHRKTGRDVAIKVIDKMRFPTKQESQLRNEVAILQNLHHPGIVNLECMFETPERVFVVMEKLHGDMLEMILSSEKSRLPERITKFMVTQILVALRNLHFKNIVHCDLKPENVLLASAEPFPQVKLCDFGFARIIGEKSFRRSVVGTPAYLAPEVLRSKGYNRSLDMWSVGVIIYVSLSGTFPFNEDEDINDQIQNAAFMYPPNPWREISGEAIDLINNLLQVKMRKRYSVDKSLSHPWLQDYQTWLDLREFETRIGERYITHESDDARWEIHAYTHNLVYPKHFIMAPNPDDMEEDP

## CC(C)Nc1sc(C(=O)c2ccc(Cl)s2)c(N)c1C#N
[1]
  Activity: 72%
[2]
  Activity: 95%
[3]
  Activity: 100%
[4]
  Activity: 76%
[5]
  Activity: 100%
[6]
  Activity: 50%
[7]
  Activity: 100%
[8]
  Activity: 100%
[9]
  Activity: 85%
[10]
  Activity: 79%
[11]
  Activity: 67%
[12]
  Activity: 100%
[13]
  Activity: 100%
[14]
  Activity: 100%
[15]
  Activity: 85%
[16]
  Activity: 72%
[17]
  Activity: 62%
[18]
  Activity: 100%
[19]
  Activity: 100%
[20]
  Activity: 85%
[21]
  Activity: 91%
[22]
  Activity: 75%
[23]
  Activity: 87%
[24]
  Activity: 87%
